From paper PMC8243409 (Journal of chemical information and modeling, 2021)

Biological target: E. coli dihydrofolate reductase (DHFR) (Escherichia coli, UniProt P0ABQ4)
Test: steady-state kinetics dose response
Type: biochemical

Chain of E. coli dihydrofolate reductase (DHFR) (P0ABQ4 whole entry): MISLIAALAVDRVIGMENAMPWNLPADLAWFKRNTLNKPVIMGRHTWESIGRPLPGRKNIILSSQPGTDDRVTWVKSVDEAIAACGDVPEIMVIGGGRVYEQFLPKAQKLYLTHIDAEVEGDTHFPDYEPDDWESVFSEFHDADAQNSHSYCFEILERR

Question: `COc1cc2c(Nc3ccc(Br)cc3F)ncnc2cc1OCC1CCN(C)CC1` [NSC760766, Vandetanib] was tested. Which IC50 did it give?
Answer: ~39 µM
